Legend:
Cryptococcus neoformans [1] = experiment: Minimum inhibitory concentration (MIC), disk diffusion method; format: cell-based; conditions: disks of 50 to 3.12 µg, 42-120 hrs at room temperature
Excerpt: (§1) Agar: Czapek Malt Agar (Himedia laboratories Ltd.) was used for culturing Microsporum gypseum, Trichophyton mentagrophytes T. tonsurans, T. violaceum, Aspergillus fresenii and A. niger. Mycological Agar (Himedia Laboratories Ltd) was used for Cryptococcus neoformans and Candida sp.
(§2) Pathogenic fungal strains of yeast and filamentous fungi identified and gifted by Dr. Savio from Goa Medical College, Bambolim, were used for the test. Strains of Aspergillus were isolated from the infected wheat bread with sterile needle; fungal material was surface sterilized using 0.5 % sodium hypochlorite for 2-3 minutes, and then washed with small brush in sterile distilled water. Washed fungal material was transferred using needle into the sterile culture media and subcultured for purification by following standard methods (Collins and Taylor, 1967). Taxonomic identification was done by using various standard keys (Ainswort et al., 1973; Onion et al., 1981) and identification confirmed by Alka Pandey of Agarkar Research Institute, Pune.
(§3) Yeast strains (Candida sp. and Cryptococcus neoformans) were maintained by single colony transfer on mycological agar (Himedia Laboratories Ltd) at the refrigeration temperature (3-5°C). Filamentous fungi were maintained on Czapek Malt agar slants at refrigeration temperature (3-5°C), until needed for the assay.
(§4) Innocula were adjusted to 100 µl of Cryptococcus neoformans, Candida sp., Microsporum gypseum, Trichophyton tonsurans, T. violaceum and Trichophyton mentagrophytes and spread on the appropriate plates, excess moisture was allowed to absorb for 10 minutes before applying disks. Immediately prior to the assay, the testing compound of formula 1, object of the present invention, the reference compounds amphotericin B and nystatin, potency approx:750µ/mg and 4800USPunit/mg respectively, were reconstituted in triplicate in dimethylsulfoxide. […] From the stock solution 10 µl were spread on the paper disk so as to obtain final concentration of 50 µg disc^-1, 25µg disc^-1, 12.5 µg disc^-1, 6.25 µg disc^-1 and 3.12 µg disk^-1. Disks were dried at reduced pressure in the dessicator, at 28-29°C and applied to inoculated plates.
(§5) In testing, the compound of formula 1 was reconstituted in dimethylsulfoxide (DMSO) immediately prior to all assays. Dimethylsulfoxide (DMSO) alone had no detectable inhibitory effect on any of the tested microbes. Compound of formula 1 was tested against a diverse collection of yeast and filamentous fungi, some of which are resistant to the reference compound nystatin. Filamentous fungi were nystatin resistant.

T. violaceum [2] = experiment: as above; format: cell-based; conditions: disks of 50 to 3.12 µg, 42-120 hrs at room temperature
Excerpt: as §1, §2, §3, §4, §5

T. tonsurans [3] = experiment: as above; format: cell-based; conditions: disks of 50 to 3.12 µg, 42-120 hrs at room temperature
Excerpt: as §1, §2, §3, §4, §5

Microsporum gypseum [4] = experiment: as above; format: cell-based; conditions: disks of 50 to 3.12 µg, 42-120 hrs at room temperature
Excerpt: as §1, §2, §3, §4, §5

[5] = tested on: Trichophyton mentagrophytes; experiment: as above; format: cell-based; conditions: disks of 50 to 3.12 µg, 42-120 hrs at room temperature
Excerpt: as §1, §2, §3, §4, §5

Candida sp. [6] = experiment: as above; format: cell-based; conditions: disks of 50 to 3.12 µg, 42-120 hrs at room temperature
Excerpt: as §1, §2, §3, §4, §5

Aspergillus fresenii [7] = experiment: as above; format: cell-based; conditions: disks of 50 to 3.12 µg, 42-120 hrs at room temperature
Excerpt: as §1, §2, §3, §4, §5

Aspergillus niger [8] = experiment: Disk diffusion assay, zone of inhibition; format: cell-based; conditions: 250 µg. disk^-1, incubated 42-120 hrs at room temperature
Excerpt: as §1, §2, §3
(§6) Disk diffusion assay: The disk diffusion assay was used for screening of antifungal activity of the compound. The stock solution for the test was prepared by dissolving 5 mg of the compound of formula 1 in 200 µl dimethylsulphoxide (DMSO). From the stock solution 10 µl were spread on the paper disc so as to obtain the final concentration of 250 µg disk^-1. Control disk was applied reconstituted with only dimethylsulphoxide and were dried at 28-29°C. Completely dried disk was applied to innoculated plates. The plates were incubated at room temperature for the period between 42- 120 hrs. to obtain maximum growth in the culture media. The zones of inhibition around the disks were measured.

Cryptococcus neoformans [9] = experiment: Disk diffusion assay, zone of inhibition; format: cell-based; conditions: 250 µg. disk^-1, incubated 42-120 hrs at room temperature
Excerpt: as §1, §2, §3, §6

T. violaceum [10] = experiment: Disk diffusion assay, zone of inhibition; format: cell-based; conditions: 250 µg. disk^-1, incubated 42-120 hrs at room temperature
Excerpt: as §1, §2, §3, §6

T. tonsurans [11] = experiment: Disk diffusion assay, zone of inhibition; format: cell-based; conditions: 250 µg. disk^-1, incubated 42-120 hrs at room temperature
Excerpt: as §1, §2, §3, §6

Microsporum gypseum [12] = experiment: Disk diffusion assay, zone of inhibition; format: cell-based; conditions: 250 µg. disk^-1, incubated 42-120 hrs at room temperature
Excerpt: as §1, §2, §3, §6

[13] = tested on: Trichophyton mentagrophytes; experiment: Disk diffusion assay, zone of inhibition; format: cell-based; conditions: 250 µg. disk^-1, incubated 42-120 hrs at room temperature
Excerpt: as §1, §2, §3, §6

Candida sp. [14] = experiment: Disk diffusion assay, zone of inhibition; format: cell-based; conditions: 250 µg. disk^-1, incubated 42-120 hrs at room temperature
Excerpt: as §1, §2, §3, §6

Aspergillus fresenii [15] = experiment: Disk diffusion assay, zone of inhibition; format: cell-based; conditions: 250 µg. disk^-1, incubated 42-120 hrs at room temperature
Excerpt: as §1, §2, §3, §6

Aspergillus niger [16] = experiment: Minimum inhibitory concentration (MIC), disk diffusion method; format: cell-based; conditions: disks of 50 to 3.12 µg, 42-120 hrs at room temperature
Excerpt: as §1, §2, §3, §4, §5

Cladosporium cucumerinum = conditions: TLC bioassay; cited from earlier work

In the case of “3-O-α-rhamnopyranosyl-rhamnopyranosyl-glucopyranosyl-glucoronopyranosylgluco-pyrano side 16 α-hydroxy-13, 28-epoxy oleanane [Compound 1]”, the MIC (Cryptococcus neoformans [1]) is reported as 6.25 -12.5 µg. disk^-1, the MIC (T. violaceum [2]) is reported as 25 - 50 µg. disk^-1 and the MIC (T. tonsurans [3]) is reported as 12.5 - 25 µg. disk^-1. The MIC (Microsporum gypseum [4]) was 12.5 - 25 µg. disk^-1, the MIC [5] was 25 - 50 µg. disk^-1 and the MIC (Candida sp. [6]) was 6.25 -12.5 µg. disk^-1. For the same compound, the MIC (Aspergillus fresenii [7]) was 25 -50 µg. disk^-1, the zones of inhibition (Aspergillus niger [8]) was 4 mm and the zones of inhibition (Cryptococcus neoformans [9]) was 9 mm. It also gave a zones of inhibition (T. violaceum [10]) of 13 mm, a zones of inhibition (T. tonsurans [11]) of 14 mm and a zones of inhibition (Microsporum gypseum [12]) of 14 mm. The zones of inhibition [13] was 12 mm, the zones of inhibition (Candida sp. [14]) was 9 mm and the zones of inhibition (Aspergillus fresenii [15]) was 10 mm.
With `C[C@@H]1[C@H](O)[C@@H](C)/C=C/C=C/C=C/C=C/C=C/C=C/C=C/[C@H](O[C@@H]2O[C@H](C)[C@@H](O)[C@H](N)[C@@H]2O)C[C@@H]2O[C@](O)(C[C@@H](O)C[C@@H](O)[C@H](O)CC[C@@H](O)C[C@@H](O)CC(=O)O[C@H]1C)C[C@H](O)[C@H]2C(=O)O` [Amphotericin B, reference compound] the MIC (Aspergillus niger [16]) was 12.5 -25 µg. disk^-1, the MIC (Cryptococcus neoformans [1]) was 3.12 - 6.25 µg. disk^-1 and the MIC (T. violaceum [2]) was 6.25 -12.5 µg. disk^-1. For the same compound, the MIC (T. tonsurans [3]) was 6.25 - 12.5 µg. disk^-1, the MIC (Microsporum gypseum [4]) was 6.25 -12.5 µg. disk^-1 and the MIC [5] was 6.25 - 12.5 µg. disk^-1. For the same compound, the MIC (Candida sp. [6]) was 3.12 - 6.25 µg. disk^-1 and the MIC (Aspergillus fresenii [7]) was 12.5 -25 µg. disk^-1.
For `C[C@@H]1[C@H](O)[C@@H](C)/C=C/C=C/CC/C=C/C=C/C=C/C=C/C(O[C@H]2O[C@H](C)[C@@H](O)[C@H](N)[C@@H]2O)CC2O[C@](O)(CC(O)C(O)CCC(O)CC(O)CC(O)CC(=O)O[C@H]1C)CC(O)C2C(=O)O` (some centres unmarked) [Nystatin], the MIC (Cryptococcus neoformans [1]) was 6.25 - 12.5 µg. disk^-1 and the MIC (Candida sp. [6]) was 6.25 -12.5 µg. disk^-1.
In the case of Sakurasaponin, the antifungal at (Cladosporium cucumerinum) is given as 1 µg.

From patent publication EP1373298B1, “A COMPOSITION CONTAINING NOVEL COMPOUND CORNICULATONIN HAVING ANTIFUNGI PROPERTIES AND A PROCESS FOR PREPARING THE SAME” (COUNCIL OF SCIENTIFIC AND INDUSTRIAL RESEARCH, priority 2001, dated 2002)
